biological target: T1, CIB1 and αIIb interaction (GST-CIB1 : F-αIIb peptide) (Homo sapiens, UniProt Q99828); assay: FP assay, 384-well format (screen); type: binding; parameters: 384-well SCREEN Efficacy (%): concentration or dose not given beside the values; settings: not given
T1 construct: made in house; host or cells: BL-21 plus RIL cells (E. coli)
T1 sequence (Q99828 1-191): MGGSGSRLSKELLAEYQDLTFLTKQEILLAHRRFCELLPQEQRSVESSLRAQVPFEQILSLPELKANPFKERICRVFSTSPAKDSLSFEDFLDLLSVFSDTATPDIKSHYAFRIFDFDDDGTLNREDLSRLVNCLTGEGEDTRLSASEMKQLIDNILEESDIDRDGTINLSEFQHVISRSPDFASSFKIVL

Row | SMILES | 384-well SCREEN Confirm? | 384-well SCREEN Efficacy (%)
1 | CC[P](CC)(CC)=[Au][S][C@@H]1O[C@H](COC(C)=O)[C@@H](OC(C)=O)[C@H](OC(C)=O)[C@H]1OC(C)=O [NCGC00160391-02] | YES | 69

same assay, conditions: F-αIIb peptide

Row | SMILES | 384-well SCREEN Efficacy (%)
2 | Oc1c(Cl)cc(Cl)c(Cl)c1Cc1c(O)c(Cl)cc(Cl)c1Cl [NCGC00091195-08] | 55
3 | Brc1c(Br)c(Br)c2[nH]nnc2c1Br [NCGC00092352-04, 4,5,6,7-tetrabromobenzotriazole, reference compound] | 40

same assay, conditions: F-αIIb peptide; YES/NO

Row | SMILES | 384-well SCREEN Confirm?
4 | Brc1c(Br)c(Br)c2[nH]nnc2c1Br [NCGC00092352-04, 4,5,6,7-tetrabromobenzotriazole, reference compound] | YES

same assay, conditions: F-αIIb peptide; read-out: 384-well SCREEN IC50

Row | SMILES | IC50 [µM]
5 | Oc1c(Cl)cc(Cl)c(Cl)c1Cc1c(O)c(Cl)cc(Cl)c1Cl [NCGC00091195-08] | > 120
6 | Brc1c(Br)c(Br)c2[nH]nnc2c1Br [NCGC00092352-04, 4,5,6,7-tetrabromobenzotriazole, reference compound] | 4.7

same assay, conditions: read-out: 384-well SCREEN IC50

Row | SMILES | IC50 [µM]
7 | CC[P](CC)(CC)=[Au][S][C@@H]1O[C@H](COC(C)=O)[C@@H](OC(C)=O)[C@H](OC(C)=O)[C@H]1OC(C)=O [NCGC00160391-02] | 6.3

biological target: T2, GST-CIB1 : F-scrambled peptide (Homo sapiens, UniProt Q99828); assay: FP scrambled-peptide counter screen, 384-well format; type: binding; settings: not given
T2 construct: made in house; host or cells: BL-21 plus RIL cells (E. coli)
T2 sequence (Q99828 1-191): T1 sequence (Q99828 1-191)

Row | SMILES | 384-well COUNTERSCREEN Efficacy (%)
8 | CC[P](CC)(CC)=[Au][S][C@@H]1O[C@H](COC(C)=O)[C@@H](OC(C)=O)[C@H](OC(C)=O)[C@H]1OC(C)=O [NCGC00160391-02] | 52

same assay, conditions: F-scrambled peptide

Row | SMILES | 384-well COUNTERSCREEN Efficacy (%)
9 | Oc1c(Cl)cc(Cl)c(Cl)c1Cc1c(O)c(Cl)cc(Cl)c1Cl [NCGC00091195-08] | 205
10 | Brc1c(Br)c(Br)c2[nH]nnc2c1Br [NCGC00092352-04, 4,5,6,7-tetrabromobenzotriazole, reference compound] | 35

same assay, conditions: F-scrambled peptide; *: Curve in opposite direction

Row | SMILES | 384-well COUNTERSCREEN Confirm?
11 | Brc1c(Br)c(Br)c2[nH]nnc2c1Br [NCGC00092352-04, 4,5,6,7-tetrabromobenzotriazole, reference compound] | YES

same assay, conditions: F-scrambled peptide; read-out: 384-well COUNTERSCREEN IC50

Row | SMILES | IC50 [µM]
12 | Oc1c(Cl)cc(Cl)c(Cl)c1Cc1c(O)c(Cl)cc(Cl)c1Cl [NCGC00091195-08] | 31.6
13 | Brc1c(Br)c(Br)c2[nH]nnc2c1Br [NCGC00092352-04, 4,5,6,7-tetrabromobenzotriazole, reference compound] | > 120

same assay, conditions: read-out: 384-well COUNTERSCREEN IC50

Row | SMILES | IC50 [µM]
14 | CC[P](CC)(CC)=[Au][S][C@@H]1O[C@H](COC(C)=O)[C@@H](OC(C)=O)[C@H](OC(C)=O)[C@H]1OC(C)=O [NCGC00160391-02] | 8.9

biological target: T3, CIB1 and αIIb interaction (CIB1-GST : F-αIIb peptide) (Homo sapiens, UniProt Q99828); assay: FP assay, 1536-well qHTS format (primary and confirmatory screen); type: binding; settings: not given
T3 construct: made in house; host or cells: BL-21 plus RIL cells (E. coli)
T3 sequence (Q99828 1-191): T1 sequence (Q99828 1-191)

Row | SMILES | CONFIRMATORY SCREEN Confirm? | CONFIRMATORY SCREEN Curve Class | CONFIRMATORY SCREEN Efficacy (%)
15 | CC[P](CC)(CC)=[Au][S][C@@H]1O[C@H](COC(C)=O)[C@@H](OC(C)=O)[C@H](OC(C)=O)[C@H]1OC(C)=O [NCGC00160391-02] | YES | -1.2 | -36

same assay, conditions: 1536-well qHTS of 14,782 compounds; read-out: intraplate control IC50

Row | SMILES | IC50 [µM]
16 | Brc1c(Br)c(Br)c2[nH]nnc2c1Br [NCGC00092352-04, 4,5,6,7-tetrabromobenzotriazole, reference compound] | ~10.7

same assay, conditions: 1536-well; LOPAC1280 pilot screen; 0.85 μM GST-CIB1, 100 nM F-αIIb, RT 15 minutes

Row | SMILES | IC50
17 | Brc1c(Br)c(Br)c2[nH]nnc2c1Br [NCGC00092352-04, 4,5,6,7-tetrabromobenzotriazole, reference compound] | double-digit micromolar inhibitor

same assay, conditions: confirmatory screen, YES/NO call

Row | SMILES | CONFIRMATORY SCREEN Confirm?
18 | Oc1c(Cl)cc(Cl)c(Cl)c1Cc1c(O)c(Cl)cc(Cl)c1Cl [NCGC00091195-08] | YES
19 | Brc1c(Br)c(Br)c2[nH]nnc2c1Br [NCGC00092352-04, 4,5,6,7-tetrabromobenzotriazole, reference compound] | YES

same assay, conditions: confirmatory screen, qHTS curve class; negative sign = inhibitory curve

Row | SMILES | CONFIRMATORY SCREEN Curve Class
20 | Oc1c(Cl)cc(Cl)c(Cl)c1Cc1c(O)c(Cl)cc(Cl)c1Cl [NCGC00091195-08] | -1.4
21 | Brc1c(Br)c(Br)c2[nH]nnc2c1Br [NCGC00092352-04, 4,5,6,7-tetrabromobenzotriazole, reference compound] | -1.2

same assay, conditions: confirmatory screen; negative = inhibition

Row | SMILES | CONFIRMATORY SCREEN Efficacy (%)
22 | Oc1c(Cl)cc(Cl)c(Cl)c1Cc1c(O)c(Cl)cc(Cl)c1Cl [NCGC00091195-08] | -38
23 | Brc1c(Br)c(Br)c2[nH]nnc2c1Br [NCGC00092352-04, 4,5,6,7-tetrabromobenzotriazole, reference compound] | -43

same assay, conditions: confirmatory screen; read-out: CONFIRMATORY SCREEN IC50

Row | SMILES | IC50 [µM]
24 | Oc1c(Cl)cc(Cl)c(Cl)c1Cc1c(O)c(Cl)cc(Cl)c1Cl [NCGC00091195-08] | 7.1
25 | Brc1c(Br)c(Br)c2[nH]nnc2c1Br [NCGC00092352-04, 4,5,6,7-tetrabromobenzotriazole, reference compound] | 2.8

same assay, conditions: qHTS FP screen hits, Table S2; negative = inhibition

Row | SMILES | Efficacy (%)
26 | Brc1c(Br)c(Br)c2[nH]nnc2c1Br [NCGC00092352-04, 4,5,6,7-tetrabromobenzotriazole, reference compound] | -49

same assay, conditions: qHTS FP screen hits, Table S2; one class per curve where COUNT > 1; negative sign = inhibitory curve

Row | SMILES | Curve Class
27 | Brc1c(Br)c(Br)c2[nH]nnc2c1Br [NCGC00092352-04, 4,5,6,7-tetrabromobenzotriazole, reference compound] | -1.2

same assay, conditions: qHTS FP screen hits, Table S2; read-out: IC50

Row | SMILES | IC50 [µM]
28 | Brc1c(Br)c(Br)c2[nH]nnc2c1Br [NCGC00092352-04, 4,5,6,7-tetrabromobenzotriazole, reference compound] | 14.1

same assay, conditions: qHTS primary screen hits, Table S2; negative = inhibition

Row | SMILES | Efficacy (%)
29 | Oc1c(Cl)cc(Cl)c(Cl)c1Cc1c(O)c(Cl)cc(Cl)c1Cl [NCGC00091195-08] | -59

same assay, conditions: qHTS primary screen hits, Table S2; negative sign = inhibitory curve; several classes where COUNT > 1

Row | SMILES | Curve Class
30 | Oc1c(Cl)cc(Cl)c(Cl)c1Cc1c(O)c(Cl)cc(Cl)c1Cl [NCGC00091195-08] | -2.2

same assay, conditions: qHTS primary screen hits, Table S2; read-out: IC50

Row | SMILES | IC50 [µM]
31 | Oc1c(Cl)cc(Cl)c(Cl)c1Cc1c(O)c(Cl)cc(Cl)c1Cl [NCGC00091195-08] | 50.1

same assay, conditions: read-out: CONFIRMATORY SCREEN IC50

Row | SMILES | IC50 [µM]
32 | CC[P](CC)(CC)=[Au][S][C@@H]1O[C@H](COC(C)=O)[C@@H](OC(C)=O)[C@H](OC(C)=O)[C@H]1OC(C)=O [NCGC00160391-02] | 31.6

biological target: T2, GST-CIB1 : F-scrambled peptide; assay: FP scrambled-peptide counter screen, 1536-well format; type: binding; settings: not given

Row | SMILES | COUNTERSCREEN Confirm? | COUNTERSCREEN Curve Class | COUNTERSCREEN Efficacy (%)
33 | CC[P](CC)(CC)=[Au][S][C@@H]1O[C@H](COC(C)=O)[C@@H](OC(C)=O)[C@H](OC(C)=O)[C@H]1OC(C)=O [NCGC00160391-02] | YES | 4 | -14

same assay, conditions: scrambled-peptide counterscreen

Row | SMILES | COUNTERSCREEN Efficacy (%)
34 | Oc1c(Cl)cc(Cl)c(Cl)c1Cc1c(O)c(Cl)cc(Cl)c1Cl [NCGC00091195-08] | 106
35 | Brc1c(Br)c(Br)c2[nH]nnc2c1Br [NCGC00092352-04, 4,5,6,7-tetrabromobenzotriazole, reference compound] | 79

same assay, conditions: scrambled-peptide counterscreen, YES/NO call

Row | SMILES | COUNTERSCREEN Confirm?
36 | Oc1c(Cl)cc(Cl)c(Cl)c1Cc1c(O)c(Cl)cc(Cl)c1Cl [NCGC00091195-08] | YES
37 | Brc1c(Br)c(Br)c2[nH]nnc2c1Br [NCGC00092352-04, 4,5,6,7-tetrabromobenzotriazole, reference compound] | YES

same assay, conditions: scrambled-peptide counterscreen, qHTS curve class

Row | SMILES | COUNTERSCREEN Curve Class
38 | Brc1c(Br)c(Br)c2[nH]nnc2c1Br [NCGC00092352-04, 4,5,6,7-tetrabromobenzotriazole, reference compound] | 3

same assay, conditions: scrambled-peptide counterscreen; read-out: COUNTERSCREEN IC50

Row | SMILES | IC50 [µM]
39 | Oc1c(Cl)cc(Cl)c(Cl)c1Cc1c(O)c(Cl)cc(Cl)c1Cl [NCGC00091195-08] | 89.1
40 | Brc1c(Br)c(Br)c2[nH]nnc2c1Br [NCGC00092352-04, 4,5,6,7-tetrabromobenzotriazole, reference compound] | 79.4

— PMC11249646, “Small-Molecule Disruptors of the Interaction between Calcium- and Integrin-Binding Protein 1 and Integrin αIIbβ3 as Novel Antiplatelet Agents” (ACS Pharmacology & Translational Science, 2024)
